In article PMC6070540, “SUMO-mediated regulation of NLRP3 modulates inflammasome activity” (Nature Communications, 2018):

Experiments:
[1] = test system: FLAG-tagged human NLRP3; experiment: Sumoylation of NLRP3 in HEK293T cells (denaturing immunoprecipitation, immunoblot); assay type: cell-based; settings: for sumoylation of mutant NLRP3: transfected HEK293T cells, compared to WT NLRP3
Experimental: (§1) For sumoylation and ubiquitination assays 2 × 10^6 HEK293T cells were plated in 10 cm dishes and transfected with a total of 7.5 μg of DNA the following day. A modified version of “Detection of Sumoylated Proteins by Immunoprecipitation Analysis”[61] was used. Briefly, 16 h post-transfection cells were lysed in SDS lysis buffer (1% SDS, 0.15 M Tris-HCl pH 6.8 and 30% Glycerol). Lysates were boiled for 5 min and diluted 10 × in PBS-T (PBS and 1% Triton-X 100) supplemented with PR-619 (50 μM) and complete protease inhibitors. Cell lysates were sonicated for 20 s then clarified at 4 °C at 13,000 rpm for 10 min. A 20 μl of α-HA beads (SIGMA) or α-FLAG M2 beads (SIGMA) was rotated with cleared protein lysates at 4 °C for 4 h. Furthermore, 4× washes in PBS-T, supplemented with PR-619 (20 μM) and complete protease inhibitors, were performed, and samples eluted by boiling in 60 μl 1× SDS loading dye. Samples were separated by SDS-PAGE using Bolt 8% Bis-Tris plus 1.0 mm 12 well precast protein gels (Life Technologies) in MOPS buffer. Where necessary, the modification smears were quantified using Image Lab Software (Bio-Rad) and normalised to total immunoprecipitated NLRP3 in biological triplicate.

[2] = test system: endogenous NLRP3 and SUMO-2/-3; experiment: Proximity ligation assay (PLA) NLRP3/SUMO-2/-3; assay type: cell-based, murine; settings: immortalised WT BMDMs; LPS 4 h followed by 10 µM nigericin 30 min or 5 mM ATP 20 min (ATP n = 1)
Experimental: (§2) For immunofluorescence staining, 1.5 × 10^5 cells were plated on 13 mm glass cover slips (VWR). Cells were either left untreated, or treated with LPS (500 ng/ml) for 4 h followed or not by 10 µM nigericin for 30 min or 5 mM ATP for 20 min, before being fixed in 4% paraformaldehyde for 10 min. Following 10 min permeabilization with PBS containing 0.5% Triton X-100, cells were incubated for 1 h in 5% BSA in PBS. Respective primary antibodies were then added as follows: mouse α-NLRP3 (AG-20B-0014, AdipoGen, 1:1000), rabbit α-SUMO-2/3 (4971, Cell Signalling, 1:1000), rabbit α-ASC (AG-25B-0006, AdipoGen, 1:200) and rabbit α-MAPL (ab84067, Abcam, 1:1000). Alexa Fluor 633-conjugated Phalloidin (Invitrogen, 1:500) was used to stain actin filaments. Secondary fluorescent conjugated antibodies were then added as follows: 1:1000 CF488A-donkey α-mouse and 1:1000 CF488-donkey α-rabbit. Nuclei were stained with DAPI (Invitrogen). Cells were visualised by confocal microscopy (objective× 40, Zeiss LSM710). PLA was performed according to the manufacturer’s protocol using the Duolink Detection Kit (Cambridge BioScience Ltd). […] The number of fluorescent spots in 50 cells were quantified using ImageJ and data analysed using two-way ANOVA multiple comparison test or two-tailed Student’s t-test using Prism 7, Graphpad.

[3] = test system: NLRP3 and ASC; experiment: PLA NLRP3/ASC (inflammasome formation); assay type: cell-based, murine; settings: WT BMDMs; LPS 4 h followed by 10 µM nigericin 30 min or 5 mM ATP 20 min (ATP n = 1)
Experimental: as §2

[4] = test system: FLAG-NLRP3; experiment: Ubiquitylation of NLRP3 in HEK293T cells (immunoprecipitation, immunoblot); assay type: cell-based, human
Experimental: as §1

[5] = test system: caspase-1; experiment: Caspase-1 cleavage assay in 293T-ASC-caspase-1 cells; assay type: cell-based, human; settings: transfected 293T-ASC-caspase-1 cells; p20 immunoblot
Experimental: For caspase-1 cleavage assays 1 × 10^5 HEK293T-ASC-caspase-1 cells were plated in 24-well plates and transfected with a total of 600 ng of DNA the following day. Cells were lysed in 80 μl of DISC lysis buffer (20 mM Tris-HCL pH 7.5, 150 mM NaCl, 2 mM EDTA, 1% Triton X-100, 10% Glycerol) supplemented with 2% SDS. To shred genomic DNA cell lysates were passed through 0.8 ml columns (Pierce). Lysates were quantified using BCA protein assay kit (Pierce) and 6× SDS loading dye added. Samples were boiled for 5 min before separating by SDS-PAGE using NuPAGE Novex 4–12% Bis-Tris 1.0 mm 20 well precast midi protein gels (Life Technologies) in MES buffer. Caspase-1 p20 antibody (Bally-1, human, Adipogen) was used to detect total and cleaved caspase-1 in cell lysate.

[6] = test system: SUMO-2/-3 proteome; experiment: Global sumoylation (RanGAP1, total SUMO-2/-3 proteome); assay type: cell-based, human; settings: HEK293T cells, nigericin
Experimental: as §1

[7] = test system: NLRP3 and MAPL; experiment: PLA NLRP3/MAPL; assay type: cell-based, murine; settings: WT BMDMs; untreated, LPS 4 h, or LPS 4 h followed by 10 µM nigericin 30 min; biological triplicate
Experimental: as §2

[8] = test system: NLRP3, SUMO-2/-3, MAPL; experiment: Immunofluorescence staining of NLRP3, SUMO-2/-3, MAPL; assay type: cell-based, murine; settings: BMDMs
Experimental: as §2

Molecule: NLRP3^E690K: reported CAPS disease mutant
- sumoylation of mutant NLRP3 [1]: did not reduce the overall sumoylation smearing pattern

Molecule: NLRP3^E692K: reported CAPS disease mutant
- sumoylation of mutant NLRP3 [1]: did not reduce the overall sumoylation smearing pattern

Molecule: Nc1ncnc2c1ncn2[C@@H]1O[C@H](COP(=O)(O)OP(=O)(O)OP(=O)(O)O)[C@@H](O)[C@H]1O [ATP]
- NLRP3-SUMO-2/-3 PLA signals upon inflammasome activation [2]: significantly reduced proximity labelling of NLRP3 and SUMO-2/-3
- NLRP3-ASC inflammasome complexes (PLA) [3]: specifically formed upon treatment with LPS and nigericin or ATP

Molecule: NLRP3^K689R: full length NLRP3 with K689 mutated to R
- sumoylation of mutant NLRP3 [1]: no effect
- ubiquitylation of mutant NLRP3 ([4]; transfected HEK293T cells, compared to WT NLRP3): no effect
- ability of NLRP3 to activate caspase-1 [5]: hyperactive in driving caspase-1 cleavage

Molecule: CO[C@@H]1C[C@@H](C[C@H]2CC[C@H](C)[C@H]([C@@H](C)C(=O)O)O2)O[C@]2(O[C@](C)([C@H]3CC[C@@](C)([C@@H]4O[C@@H]([C@H]5O[C@@](O)(CO)[C@H](C)C[C@@H]5C)C[C@@H]4C)O3)C[C@H]2C)[C@@H]1C [nigericin]
- sumoylated NLRP3 after stimulation ([1]; HEK293T cells expressing FLAG-NLRP3, nigericin time course, normalised to total immunoprecipitated NLRP3, three independent experiments): induced notable reduction of sumoylated NLRP3
- ubiquitylated NLRP3 after stimulation ([4]; HEK293T cells expressing FLAG-NLRP3, nigericin time course, three independent experiments): less ubiquitylated
- sumoylation of RanGAP1 ([6]; selectivity control): remained sumoylated
- overall smearing pattern of total SUMO-2/-3 proteome ([6]; total cell lysates): no apparent change
- NLRP3-SUMO-2/-3 PLA signals upon inflammasome activation [2]: significantly reduced proximity labelling of NLRP3 and SUMO-2/-3
- NLRP3-ASC inflammasome complexes (PLA) [3]: specifically formed upon treatment with LPS and nigericin or ATP
- MAPL/NLRP3 proximity signals [7]: almost completely abolished MAPL/NLRP3 proximity signals
- general expression of NLRP3 and SUMO-2/-3 ([8]; LPS and nigericin, immunofluorescence): unaffected
- MAPL staining ([8]; nigericin, conventional immunofluorescence): caused a decrease in MAPL staining

Molecule: N#CSc1cc(SC#N)c(N)nc1N [PR-619]
- appearance of sumoylated NLRP3 ([1]; HEK293T cells transfected with FLAG-tagged human NLRP3, endogenous SUMO-2/-3, immunoblot, in the presence vs absence of compound): significantly enhanced the appearance of sumoylated NLPR3

B1: WT MAPL: mitochondrial-anchored protein ligase, SUMO E3 ligase (protein)
chain: MESGGRPSLCQFILLGTTSVVTAALYSVYRQKARVSQELKGAKKVHLGEDLKSILSEAPGKCVPYAVIEGAVRSVKETLNSQFVENCKGVIQRLTLQEHKMVWNRTTHLWNDCSKIIHQRTNTVPFDLVPHEDGVDVAVRVLKPLDSVDLGLETVYEKFHPSIQSFTDVIGHYISGERPKGIQETEEMLKVGATLTGVGELVLDNNSVRLQPPKQGMQYYLSSQDFDSLLQRQESSVRLWKVLALVFGFATCATLFFILRKQYLQRQERLRLKQMQEEFQEHEAQLLSRAKPEDRESLKSACVVCLSSFKSCVFLECGHVCSCTECYRALPEPKKCPICRQAITRVIPLYNS
modifications: left off: 2xHA, end not stated, kept | 2xSTREP, end not stated, state not stated
- sumoylation of NLRP3 by co-expressed MAPL ([1]; FLAG-NLRP3 purified under denaturing conditions, HEK293T, three independent experiments): sumoylated NLRP3
